According to ChEMBL document CHEMBL1201862, “PubChem BioAssay data set” (2004):
Active and inactive are the calls of the source.

Assays:
Type in all cases: functional
[1] = target: T1, Sentrin-specific protease 8 (Homo sapiens, UniProt Q96LD8); experiment: inhibition of human SENP8 cleavage activity – biochemical, luminescence, SAR follow-up (AID 504501)
T1 sequence (Q96LD8 whole entry): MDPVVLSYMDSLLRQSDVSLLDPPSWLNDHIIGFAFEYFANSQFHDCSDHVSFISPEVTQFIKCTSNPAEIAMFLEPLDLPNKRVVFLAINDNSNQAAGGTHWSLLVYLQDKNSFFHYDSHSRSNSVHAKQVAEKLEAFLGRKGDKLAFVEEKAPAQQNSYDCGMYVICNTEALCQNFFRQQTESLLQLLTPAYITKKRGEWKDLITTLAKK

[2] = target: T2, Caspase-3 (Homo sapiens, UniProt P42574); experiment: SAR Analysis of small molecule inhibitors of Sentrin-specific proteases (SENPs) using a Caspase-3 Selectivity assay. [Related pubchem assays (depositor defined):AID2540, AID2599, AID434973, AID489001]
T2 sequence (P42574 whole entry): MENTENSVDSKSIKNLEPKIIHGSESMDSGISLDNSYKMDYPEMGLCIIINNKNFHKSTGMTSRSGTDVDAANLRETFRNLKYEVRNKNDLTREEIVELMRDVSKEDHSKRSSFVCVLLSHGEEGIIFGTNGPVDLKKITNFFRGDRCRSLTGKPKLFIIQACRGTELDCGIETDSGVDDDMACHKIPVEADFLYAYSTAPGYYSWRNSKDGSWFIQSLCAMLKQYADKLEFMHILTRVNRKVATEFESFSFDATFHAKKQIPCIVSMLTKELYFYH

[3] = target: T3, Sentrin-specific protease 6 (Homo sapiens, UniProt Q9GZR1); experiment: SAR Analysis of small molecule inhibitors of Sentrin-specific protease 6 (SENP6) using a Luminescent assay. [Related pubchem assays (depositor defined):AID2582, AID2599]
T3 sequence (Q9GZR1 whole entry): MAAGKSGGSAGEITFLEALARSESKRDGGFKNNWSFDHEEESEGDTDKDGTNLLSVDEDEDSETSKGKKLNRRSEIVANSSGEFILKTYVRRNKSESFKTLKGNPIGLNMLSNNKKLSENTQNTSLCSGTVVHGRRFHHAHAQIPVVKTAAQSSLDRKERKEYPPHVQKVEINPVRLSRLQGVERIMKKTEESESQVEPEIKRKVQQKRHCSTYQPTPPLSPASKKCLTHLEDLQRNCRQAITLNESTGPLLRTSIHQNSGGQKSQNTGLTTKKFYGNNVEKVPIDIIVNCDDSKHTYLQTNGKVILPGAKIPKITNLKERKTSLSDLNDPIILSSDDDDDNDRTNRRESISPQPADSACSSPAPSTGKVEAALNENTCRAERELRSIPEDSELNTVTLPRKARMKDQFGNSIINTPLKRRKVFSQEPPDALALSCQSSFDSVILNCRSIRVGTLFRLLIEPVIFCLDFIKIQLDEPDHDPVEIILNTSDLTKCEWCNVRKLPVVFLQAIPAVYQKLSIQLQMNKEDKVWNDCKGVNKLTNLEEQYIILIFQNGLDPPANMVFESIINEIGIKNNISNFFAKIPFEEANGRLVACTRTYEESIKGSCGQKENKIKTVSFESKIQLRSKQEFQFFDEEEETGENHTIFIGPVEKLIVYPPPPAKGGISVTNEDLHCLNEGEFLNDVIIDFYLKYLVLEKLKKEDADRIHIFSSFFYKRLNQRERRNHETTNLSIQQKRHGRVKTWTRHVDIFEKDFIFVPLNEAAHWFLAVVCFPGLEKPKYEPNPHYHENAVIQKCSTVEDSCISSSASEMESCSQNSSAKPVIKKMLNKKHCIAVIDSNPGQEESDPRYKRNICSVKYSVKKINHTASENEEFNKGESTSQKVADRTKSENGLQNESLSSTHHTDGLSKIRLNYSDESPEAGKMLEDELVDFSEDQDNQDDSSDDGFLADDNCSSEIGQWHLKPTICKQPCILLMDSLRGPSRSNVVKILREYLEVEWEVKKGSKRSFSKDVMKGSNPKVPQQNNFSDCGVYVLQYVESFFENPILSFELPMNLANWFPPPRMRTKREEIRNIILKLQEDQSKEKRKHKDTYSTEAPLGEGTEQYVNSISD

[4] = target: T4, Sentrin-specific protease 7 (Homo sapiens, UniProt Q9BQF6); experiment: inhibition of human SENP7 cleavage activity – biochemical, luminescence, SAR follow-up (AID 504497)
T4 sequence (Q9BQF6 whole entry): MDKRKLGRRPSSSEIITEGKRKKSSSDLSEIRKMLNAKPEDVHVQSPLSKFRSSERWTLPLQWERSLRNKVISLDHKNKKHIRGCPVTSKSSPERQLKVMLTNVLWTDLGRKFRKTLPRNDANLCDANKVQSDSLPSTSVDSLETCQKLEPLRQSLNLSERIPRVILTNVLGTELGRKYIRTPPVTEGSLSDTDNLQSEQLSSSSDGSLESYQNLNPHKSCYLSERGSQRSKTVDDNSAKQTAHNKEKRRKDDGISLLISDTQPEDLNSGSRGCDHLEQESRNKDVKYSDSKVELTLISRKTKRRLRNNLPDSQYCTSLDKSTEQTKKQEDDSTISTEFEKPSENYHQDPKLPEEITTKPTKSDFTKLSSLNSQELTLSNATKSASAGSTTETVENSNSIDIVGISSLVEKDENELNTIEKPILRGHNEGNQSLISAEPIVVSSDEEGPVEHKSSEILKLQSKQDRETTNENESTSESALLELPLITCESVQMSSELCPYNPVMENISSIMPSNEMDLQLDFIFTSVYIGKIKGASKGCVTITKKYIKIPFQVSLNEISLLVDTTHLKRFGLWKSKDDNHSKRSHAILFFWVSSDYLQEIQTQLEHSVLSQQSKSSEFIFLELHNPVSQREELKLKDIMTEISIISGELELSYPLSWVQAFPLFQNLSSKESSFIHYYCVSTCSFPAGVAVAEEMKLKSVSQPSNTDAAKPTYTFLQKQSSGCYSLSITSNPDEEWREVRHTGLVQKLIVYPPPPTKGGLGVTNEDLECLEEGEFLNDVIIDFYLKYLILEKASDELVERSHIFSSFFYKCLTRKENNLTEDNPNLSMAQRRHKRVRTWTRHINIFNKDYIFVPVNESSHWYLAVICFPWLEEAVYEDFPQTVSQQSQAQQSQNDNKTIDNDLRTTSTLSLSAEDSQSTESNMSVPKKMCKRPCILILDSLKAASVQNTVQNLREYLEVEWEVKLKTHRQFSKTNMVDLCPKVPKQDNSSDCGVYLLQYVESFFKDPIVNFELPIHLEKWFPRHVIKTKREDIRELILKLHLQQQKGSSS

[5] = system: CHO-K1; experiment: (§1) Counterscreen for antagonists of the orexin 1 receptor (OX1R; HCRTR1): Homogeneous time resolved fluorescence (HTRF)-based cell-based dose response assay to identify antagonists of the parental CHO-K1 cell line. [Related pubchem assays (depositor defined):AID434989, AID435008, AID463079, AID485270, AID492963, AID492964, AID492965, AID493232, AID504699, AID504701]; conditions: Cricetulus griseus
[6] = as §1, with “Fluorescence-based” for “Homogeneous time resolved fluorescence (HTRF)-based”, “cell-based high throughput” for “cell-based”, “CHO” for “CHO-K1”
[7] = target: T5, Orexin/Hypocretin receptor type 1 (Homo sapiens, UniProt O43613); experiment: Homogeneous Time Resolved Fluorescence (HTRF)-based cell-based high throughput dose response assay for antagonists of the orexin 1 receptor (OX1R; HCRTR1). [Related pubchem assays (depositor defined):AID434989, AID435008, AID463079, AID485270, AID492963, AID492964, AID492965, AID493232, AID504717, AID504718]
T5 sequence (O43613 whole entry): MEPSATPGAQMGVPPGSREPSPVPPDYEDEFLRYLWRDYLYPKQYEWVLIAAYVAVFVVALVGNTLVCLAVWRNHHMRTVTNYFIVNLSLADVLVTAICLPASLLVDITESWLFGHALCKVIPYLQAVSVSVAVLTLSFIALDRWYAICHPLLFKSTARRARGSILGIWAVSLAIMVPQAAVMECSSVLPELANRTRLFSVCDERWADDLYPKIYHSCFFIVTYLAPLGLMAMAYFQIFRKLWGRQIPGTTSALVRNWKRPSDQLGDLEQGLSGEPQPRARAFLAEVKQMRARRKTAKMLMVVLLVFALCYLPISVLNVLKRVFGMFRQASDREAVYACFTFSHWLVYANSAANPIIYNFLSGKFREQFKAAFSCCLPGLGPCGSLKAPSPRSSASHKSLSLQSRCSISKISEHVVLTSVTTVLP

[8] = target: T5, Orexin/Hypocretin receptor type 1; experiment: Fluorescence-based cell-based high throughput dose response assay for antagonists of the orexin 1 receptor (OX1R; HCRTR1). [Related pubchem assays (depositor defined):AID434989, AID435008, AID463079, AID485270, AID492963, AID492964, AID492965, AID493232, AID504717, AID504718]
[9] = target: T6, Orexin receptor type 2 (Homo sapiens, UniProt O43614); experiment: Counterscreen assay for antagonists of the orexin 1 receptor (OX1R; HCRTR1): Fluorescence-based cell-based dose response assay for antagonists of the orexin 2 receptor (OX2R; HCRTR2), run by assay provider.
T6 sequence (O43614 whole entry): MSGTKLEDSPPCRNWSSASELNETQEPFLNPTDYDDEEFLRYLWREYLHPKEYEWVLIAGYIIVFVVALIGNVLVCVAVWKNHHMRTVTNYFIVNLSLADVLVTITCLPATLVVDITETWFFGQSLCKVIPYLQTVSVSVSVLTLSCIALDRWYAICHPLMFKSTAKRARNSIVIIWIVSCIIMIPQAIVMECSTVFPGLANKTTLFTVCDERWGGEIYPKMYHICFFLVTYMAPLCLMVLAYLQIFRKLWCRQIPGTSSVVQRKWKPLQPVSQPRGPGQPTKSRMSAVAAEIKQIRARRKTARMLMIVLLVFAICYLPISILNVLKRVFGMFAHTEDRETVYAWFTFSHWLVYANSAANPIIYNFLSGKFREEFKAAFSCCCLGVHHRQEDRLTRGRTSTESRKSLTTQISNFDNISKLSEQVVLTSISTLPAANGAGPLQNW

[10] = target: T6, Orexin receptor type 2; experiment: Counterscreen assay for antagonists of the orexin 1 receptor (OX1R; HCRTR1): Homogeneous Time Resolved Fluorescence (HTRF)-based cell-based dose response assay for antagonists of the orexin 2 receptor (OX2R; HCRTR2), run by assay provider.
[11] = target: Tyrosine-protein kinase Lck (Homo sapiens, UniProt P06239);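 note: lck was assayed as one member of a kinase panel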
[12] = target: Mast/stem cell growth factor receptor Kit (Homo sapiens, UniProt P10721);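 note: KIT entry within a kinase panel assay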
[13] = target: Tyrosine-protein kinase Lyn (Homo sapiens, UniProt P07948);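 note: lyn as one member of a kinase panel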
[14] = target: Tyrosine-protein kinase Blk (Homo sapiens, UniProt P51451);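 note: obtained as one member of a kinome-wide kinase assay panel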
[15] = target: Proto-oncogene tyrosine-protein kinase Src (Homo sapiens, UniProt P12931);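 note: SRC entry within a kinome-wide kinase profiling panel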
[16] = target: Receptor-type tyrosine-protein kinase FLT3 (Homo sapiens, UniProt P36888);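 note: FLT3 was tested as one member of a kinome-wide kinase panel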
[17] = target: Tyrosine-protein kinase ABL1 (Homo sapiens, UniProt P00519)
[18] = target: Vascular endothelial growth factor receptor 2 (Homo sapiens, UniProt P35968)
[19] = target: Vascular endothelial growth factor receptor 3 (Homo sapiens, UniProt P35916);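 note: value from a kinome-wide profiling panel, with FLT4 as the panel member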
[20] = target: Tyrosine-protein kinase Fyn (Homo sapiens, UniProt P06241)
[21] = target: Vascular endothelial growth factor receptor 1 (Homo sapiens, UniProt P17948);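 note: measured within a kinome-wide profiling panel, FLT1 as the panel member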
[22] = target: Macrophage colony-stimulating factor 1 receptor (Homo sapiens, UniProt P07333);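 note: value comes from the Navigating the Kinome screening panel, CSF1R member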

Chain of Mast/stem cell growth factor receptor Kit (P10721 whole entry): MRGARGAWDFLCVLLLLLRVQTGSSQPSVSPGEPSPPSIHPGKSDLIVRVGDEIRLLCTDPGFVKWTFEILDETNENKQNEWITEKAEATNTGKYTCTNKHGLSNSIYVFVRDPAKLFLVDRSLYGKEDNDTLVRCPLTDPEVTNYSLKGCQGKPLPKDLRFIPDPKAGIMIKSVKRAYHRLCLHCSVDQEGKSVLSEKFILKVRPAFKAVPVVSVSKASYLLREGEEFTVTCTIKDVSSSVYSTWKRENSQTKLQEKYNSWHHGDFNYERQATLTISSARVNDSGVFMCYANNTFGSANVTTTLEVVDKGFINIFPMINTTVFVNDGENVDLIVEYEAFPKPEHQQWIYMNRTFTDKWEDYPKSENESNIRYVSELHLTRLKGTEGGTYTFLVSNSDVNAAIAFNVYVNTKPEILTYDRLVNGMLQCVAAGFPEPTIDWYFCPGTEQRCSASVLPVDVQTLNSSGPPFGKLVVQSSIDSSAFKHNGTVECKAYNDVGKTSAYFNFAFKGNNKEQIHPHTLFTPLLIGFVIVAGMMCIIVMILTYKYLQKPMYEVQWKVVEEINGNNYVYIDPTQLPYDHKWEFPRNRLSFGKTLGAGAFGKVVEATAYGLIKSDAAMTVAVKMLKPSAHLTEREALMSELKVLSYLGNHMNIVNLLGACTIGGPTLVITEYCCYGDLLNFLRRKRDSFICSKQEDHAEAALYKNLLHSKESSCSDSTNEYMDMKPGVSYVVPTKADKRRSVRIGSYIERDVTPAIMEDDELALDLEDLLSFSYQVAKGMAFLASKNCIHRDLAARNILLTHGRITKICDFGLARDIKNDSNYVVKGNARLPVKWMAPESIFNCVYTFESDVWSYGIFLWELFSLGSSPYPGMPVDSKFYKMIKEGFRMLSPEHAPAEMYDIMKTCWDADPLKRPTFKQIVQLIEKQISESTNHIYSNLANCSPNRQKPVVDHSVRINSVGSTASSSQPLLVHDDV
Chain of Vascular endothelial growth factor receptor 1 (P17948 whole entry): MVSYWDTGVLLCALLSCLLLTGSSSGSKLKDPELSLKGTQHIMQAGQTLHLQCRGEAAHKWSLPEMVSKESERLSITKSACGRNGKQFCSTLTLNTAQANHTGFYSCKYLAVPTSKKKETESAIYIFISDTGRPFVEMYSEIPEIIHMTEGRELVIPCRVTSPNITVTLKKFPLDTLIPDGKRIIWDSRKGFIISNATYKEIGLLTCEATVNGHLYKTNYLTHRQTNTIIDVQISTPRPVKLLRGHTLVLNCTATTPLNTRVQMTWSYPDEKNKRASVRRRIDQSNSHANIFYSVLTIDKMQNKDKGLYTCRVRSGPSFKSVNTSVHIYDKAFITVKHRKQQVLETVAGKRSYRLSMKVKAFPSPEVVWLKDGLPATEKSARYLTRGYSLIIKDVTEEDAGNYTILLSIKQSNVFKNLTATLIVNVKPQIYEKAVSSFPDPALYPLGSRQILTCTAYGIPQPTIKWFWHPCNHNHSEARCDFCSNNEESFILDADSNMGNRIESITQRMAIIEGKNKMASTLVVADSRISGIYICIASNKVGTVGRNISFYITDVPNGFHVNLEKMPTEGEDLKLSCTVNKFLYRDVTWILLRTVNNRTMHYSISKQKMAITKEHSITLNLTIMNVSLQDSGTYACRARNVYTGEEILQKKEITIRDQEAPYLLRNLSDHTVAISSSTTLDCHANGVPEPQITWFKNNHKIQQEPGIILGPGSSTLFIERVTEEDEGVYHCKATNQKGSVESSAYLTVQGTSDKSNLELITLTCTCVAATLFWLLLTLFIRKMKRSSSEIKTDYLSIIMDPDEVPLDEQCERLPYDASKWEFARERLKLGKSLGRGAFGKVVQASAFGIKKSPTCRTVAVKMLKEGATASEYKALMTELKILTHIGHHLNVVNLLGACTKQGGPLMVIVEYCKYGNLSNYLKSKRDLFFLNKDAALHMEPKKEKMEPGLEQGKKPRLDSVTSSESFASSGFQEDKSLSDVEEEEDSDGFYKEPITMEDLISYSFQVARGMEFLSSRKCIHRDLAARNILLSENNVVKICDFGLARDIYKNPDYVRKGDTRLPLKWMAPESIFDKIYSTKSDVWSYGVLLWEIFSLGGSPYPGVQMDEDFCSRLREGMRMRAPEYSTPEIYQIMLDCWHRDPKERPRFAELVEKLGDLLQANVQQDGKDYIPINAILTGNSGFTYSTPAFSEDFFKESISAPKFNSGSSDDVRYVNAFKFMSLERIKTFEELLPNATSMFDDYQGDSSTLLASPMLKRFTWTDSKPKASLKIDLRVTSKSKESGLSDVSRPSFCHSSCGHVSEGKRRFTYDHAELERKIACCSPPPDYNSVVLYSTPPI
Chain of Vascular endothelial growth factor receptor 3 (P35916 whole entry): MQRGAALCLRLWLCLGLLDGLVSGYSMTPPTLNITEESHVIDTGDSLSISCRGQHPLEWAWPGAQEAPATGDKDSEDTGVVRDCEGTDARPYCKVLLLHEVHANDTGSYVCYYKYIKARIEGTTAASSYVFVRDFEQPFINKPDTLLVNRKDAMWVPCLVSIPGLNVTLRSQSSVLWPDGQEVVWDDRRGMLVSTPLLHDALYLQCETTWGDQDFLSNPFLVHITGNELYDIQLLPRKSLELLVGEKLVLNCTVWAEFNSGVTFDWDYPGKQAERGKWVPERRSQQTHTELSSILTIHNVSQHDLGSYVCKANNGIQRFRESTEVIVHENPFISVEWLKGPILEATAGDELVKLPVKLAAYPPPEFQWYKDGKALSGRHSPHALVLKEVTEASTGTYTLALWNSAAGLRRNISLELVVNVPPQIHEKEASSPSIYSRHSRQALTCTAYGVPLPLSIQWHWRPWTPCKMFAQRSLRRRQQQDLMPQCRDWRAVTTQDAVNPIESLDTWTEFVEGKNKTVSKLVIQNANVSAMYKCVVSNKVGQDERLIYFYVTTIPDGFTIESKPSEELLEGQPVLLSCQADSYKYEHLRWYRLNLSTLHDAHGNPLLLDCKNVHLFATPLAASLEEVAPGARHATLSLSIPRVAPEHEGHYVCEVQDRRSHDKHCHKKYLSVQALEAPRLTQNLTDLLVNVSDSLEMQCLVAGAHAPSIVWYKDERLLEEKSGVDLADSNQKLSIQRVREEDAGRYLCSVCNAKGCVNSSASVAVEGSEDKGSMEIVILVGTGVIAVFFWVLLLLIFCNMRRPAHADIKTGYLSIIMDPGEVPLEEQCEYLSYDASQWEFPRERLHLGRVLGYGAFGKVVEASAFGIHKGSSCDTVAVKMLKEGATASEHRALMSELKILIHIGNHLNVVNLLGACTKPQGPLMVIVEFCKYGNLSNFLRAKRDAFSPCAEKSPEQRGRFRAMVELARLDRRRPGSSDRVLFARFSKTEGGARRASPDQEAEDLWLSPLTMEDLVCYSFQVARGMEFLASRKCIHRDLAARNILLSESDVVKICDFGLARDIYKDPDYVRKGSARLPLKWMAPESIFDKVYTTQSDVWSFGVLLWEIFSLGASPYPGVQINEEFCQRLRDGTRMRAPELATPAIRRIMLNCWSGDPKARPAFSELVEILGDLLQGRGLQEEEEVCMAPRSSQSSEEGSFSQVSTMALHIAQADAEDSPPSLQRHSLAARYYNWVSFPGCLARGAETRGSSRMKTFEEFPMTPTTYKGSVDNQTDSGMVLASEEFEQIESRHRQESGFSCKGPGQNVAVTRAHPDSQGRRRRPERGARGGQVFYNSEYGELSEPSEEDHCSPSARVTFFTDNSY
Chain of Vascular endothelial growth factor receptor 2 (P35968 whole entry): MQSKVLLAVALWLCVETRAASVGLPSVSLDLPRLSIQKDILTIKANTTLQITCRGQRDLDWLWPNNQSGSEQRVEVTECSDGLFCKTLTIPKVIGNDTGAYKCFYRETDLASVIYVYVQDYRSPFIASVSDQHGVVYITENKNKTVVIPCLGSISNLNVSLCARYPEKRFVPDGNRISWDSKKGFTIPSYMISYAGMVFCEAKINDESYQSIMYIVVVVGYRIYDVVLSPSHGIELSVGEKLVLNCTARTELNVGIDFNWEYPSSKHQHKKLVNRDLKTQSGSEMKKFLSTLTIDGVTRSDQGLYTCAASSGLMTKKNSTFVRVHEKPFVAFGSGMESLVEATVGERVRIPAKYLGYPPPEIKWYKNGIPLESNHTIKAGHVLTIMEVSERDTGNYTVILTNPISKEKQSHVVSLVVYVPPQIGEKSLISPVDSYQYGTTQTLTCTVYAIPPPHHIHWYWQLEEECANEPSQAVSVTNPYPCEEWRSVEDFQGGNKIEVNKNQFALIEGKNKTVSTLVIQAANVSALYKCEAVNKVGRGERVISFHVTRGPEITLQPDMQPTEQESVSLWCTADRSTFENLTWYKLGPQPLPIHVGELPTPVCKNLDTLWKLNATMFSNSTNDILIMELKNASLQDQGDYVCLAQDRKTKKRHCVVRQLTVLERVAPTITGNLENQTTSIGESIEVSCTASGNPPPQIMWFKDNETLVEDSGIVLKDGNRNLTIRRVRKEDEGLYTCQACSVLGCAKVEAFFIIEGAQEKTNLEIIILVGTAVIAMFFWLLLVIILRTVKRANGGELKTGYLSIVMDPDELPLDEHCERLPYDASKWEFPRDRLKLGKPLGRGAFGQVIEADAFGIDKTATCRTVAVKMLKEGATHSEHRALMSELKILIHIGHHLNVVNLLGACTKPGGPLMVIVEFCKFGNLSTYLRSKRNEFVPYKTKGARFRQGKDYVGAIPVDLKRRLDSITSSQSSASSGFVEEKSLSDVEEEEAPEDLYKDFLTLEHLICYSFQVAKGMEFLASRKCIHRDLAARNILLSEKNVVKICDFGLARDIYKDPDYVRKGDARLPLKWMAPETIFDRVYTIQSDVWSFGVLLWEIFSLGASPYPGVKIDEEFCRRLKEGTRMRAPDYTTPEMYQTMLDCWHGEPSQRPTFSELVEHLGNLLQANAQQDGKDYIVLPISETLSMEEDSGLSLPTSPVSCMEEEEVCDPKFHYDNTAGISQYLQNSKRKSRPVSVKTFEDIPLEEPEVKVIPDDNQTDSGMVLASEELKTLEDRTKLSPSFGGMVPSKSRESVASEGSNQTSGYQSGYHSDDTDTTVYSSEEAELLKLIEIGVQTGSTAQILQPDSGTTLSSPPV

In the case of `ON(O)c1ccc(N/N=C/c2c[nH]c3ccccc23)cc1`, the IC50 [1] is reported as > 99 µM (inactive), the IC50 [2] is reported as > 99 µM (inactive) and the IC50 [3] is reported as > 99 µM (inactive). For the same compound, the IC50 [4] was > 99 µM (inactive).

With `CN(C)c1ccc(NC(=S)c2ccc3ccccc3n2)cc1` the IC50 [5] was > 66.3 µM (inactive), the IC50 [6] was > 49.8 µM (inactive) and the IC50 [7] was 2.86 µM (active). For the same compound, the IC50 [8] was 6.04 µM (active), the IC50 [9] was > 88.8 µM (inactive) and the IC50 [10] was > 50 µM (inactive).

With `COc1ccc2sc(-c3ccc(N(C)C)cc3)c(C#CCO)c2c1` the IC50 [5] was > 66.2 µM (inactive), the IC50 [6] was > 49.7 µM (inactive) and the IC50 [7] was 6.09 µM (active). The IC50 [8] was 10.3 µM (inactive), the IC50 [9] was 37.4 µM (inactive) and the IC50 [10] was > 50 µM (inactive).

With `Cn1nc(N)c2c(-c3ccc(NC(=O)Nc4cccc(C(F)(F)F)c4)cc3)ccnc21` the Ki [11] was 0.316 µM (active), the Ki [12] was 0.000794 µM (active) and the Ki [13] was 0.126 µM (active). The Ki [14] was 0.398 µM (active), the Ki [15] was 0.794 µM (active) and the Ki [16] was 0.00158 µM (active). The Ki [17] was 0.2 µM (active), the Ki [18] was 0.000631 µM (active) and the Ki [19] was 0.00158 µM (active). For the same compound, the Ki [20] was 0.501 µM (active), the Ki [21] was 0.000316 µM (active) and the Ki [22] was 0.00251 µM (active).
